Key:
[1] = system: MOLM-14 D835Y (endogenous FLT3 ITD and transfected FLT3 D835Y); experiment: MOLM-14 D835Y cell proliferation assay (CellTiter-Glo); format: cell-based; details: Homo sapiens, MOLM-14, 72 h; 3 d growth, GMean
Procedure, shortened: (§1)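 MOLM-14 cells (FLT3 ITD) carrying D835Y or F691L, 1×10^4 cells/well, eight 1:3 dilutions from 1 μM final, 0.2% DMSO, 3 days at 37 °C, 5% CO2. Viability by CellTiter-Glo luminescence (ATP content); IC50 from concentration-response.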

[2] = system: MOLM-14 F691L (endogenous FLT3 ITD and transfected FLT3 F691L); experiment: MOLM-14 F691L cell proliferation assay (CellTiter-Glo); format: cell-based; details: Homo sapiens, MOLM-14, 72 h; 3 d growth, GMean
Procedure, shortened: as §1

BA/F3-FLT3-ITD + D835Y = target: T1, BA/F3-FLT3-ITD + D835Y (Homo sapiens, UniProt P36888, D835Y, cells depend on it, form not given); experiment: Engineered BA/F3 cell growth assay, FLT3 ITD/D835Y; format: cell-based, murine; details: 3 d growth
T1 sequence (P36888 with tags, fused parts or gaps INS600HVDFREYEYD/D835Y): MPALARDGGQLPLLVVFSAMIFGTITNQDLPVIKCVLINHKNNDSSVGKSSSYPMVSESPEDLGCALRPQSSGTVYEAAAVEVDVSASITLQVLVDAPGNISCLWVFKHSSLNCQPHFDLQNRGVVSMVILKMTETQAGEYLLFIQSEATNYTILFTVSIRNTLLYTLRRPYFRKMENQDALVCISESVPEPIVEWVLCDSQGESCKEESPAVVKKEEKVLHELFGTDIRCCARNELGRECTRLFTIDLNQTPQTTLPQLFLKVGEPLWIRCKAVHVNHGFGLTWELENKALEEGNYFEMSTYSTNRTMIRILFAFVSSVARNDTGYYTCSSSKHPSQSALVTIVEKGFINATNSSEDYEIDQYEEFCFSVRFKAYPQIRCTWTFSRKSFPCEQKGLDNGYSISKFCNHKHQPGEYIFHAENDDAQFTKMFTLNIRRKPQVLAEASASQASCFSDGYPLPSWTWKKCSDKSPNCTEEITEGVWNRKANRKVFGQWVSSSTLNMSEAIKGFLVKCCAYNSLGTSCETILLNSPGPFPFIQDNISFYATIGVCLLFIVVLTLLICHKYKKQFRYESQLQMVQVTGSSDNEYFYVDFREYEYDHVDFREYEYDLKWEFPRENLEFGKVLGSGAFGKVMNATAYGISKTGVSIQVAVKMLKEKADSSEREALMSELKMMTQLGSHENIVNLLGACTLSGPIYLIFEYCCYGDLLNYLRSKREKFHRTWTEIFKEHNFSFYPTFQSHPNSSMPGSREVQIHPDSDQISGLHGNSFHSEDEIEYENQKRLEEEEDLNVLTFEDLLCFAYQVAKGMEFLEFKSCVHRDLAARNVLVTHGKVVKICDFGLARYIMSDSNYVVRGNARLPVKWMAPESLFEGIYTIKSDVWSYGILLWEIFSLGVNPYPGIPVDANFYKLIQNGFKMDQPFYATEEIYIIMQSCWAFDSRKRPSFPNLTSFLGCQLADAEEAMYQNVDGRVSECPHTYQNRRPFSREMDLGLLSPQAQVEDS
Procedure, shortened: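 Murine Ba/F3 cells transfected with full-length FLT3 ITD/D835Y, grown without IL-3 so growth depends on FLT3. Seeded at 1×10^4 cells/well, 8-point 1:3 series to 1 μM top (0.2% DMSO), 3 days at 37 °C. CellTiter-Glo luminescence (ATP) versus concentration gave IC50.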

O=C(Cc1ccc(-c2cnc3[nH]cc(C(=O)C4CC4)c3c2)cc1F)Nc1ccnc(C(F)(F)F)c1 [Compound P-0032, 2-[4-[3-(cyclopropanecarbonyl)-1H-pyrrolo[2,3-b]pyridin-5-yl]-2-fluoro-phenyl]-N-[2-(trifluoromethyl)-4-pyridyl]acetamide]
0.0001 to 10 µM: IC50 [1] | IC50 [2] | GI50 (BA/F3-FLT3-ITD + D835Y)

COc1ncc(NC(=O)Cc2ccc(-c3cnc4[nH]cc(F)c4c3)cc2F)cc1C(F)(F)F [Compound P-0034, 2-[2-fluoro-4-(3-fluoro-1H-pyrrolo[2,3-b]pyridin-5-yl)phenyl]-N-[6-methoxy-5-(trifluoromethyl)-3-pyridyl]acetamide]
0.0001 to 10 µM: IC50 [1] | IC50 [2] | GI50 (BA/F3-FLT3-ITD + D835Y)

— patent US10160747B2, “Compounds and methods for kinase modulation, and indications therefor” (Plexxikon Inc., priority 2016, dated 2018)
